Results on ten compounds are retold here after ChEMBL document CHEMBL1201862, “PubChem BioAssay data set” (2004).

Among the test systems are SK-MEL-5; HOP-62; LOX IMVI; SK-MEL-28; SK-OV-3; SK-MEL-2; SF-268; Malme-3M; RXF 393; K562; HOP-92; SF-539; SR; TK-10; NCI-H460; IGROV-1; SW-620; NCI-H226; HCT-116; OVCAR-4.
What all share (test): NCI-60 cell line screen, 48 h

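Five compound concentrations were applied to cells in 96-well plates for 48 hours; endpoints were derived by simple linear interpolation of the resulting dose-response curve. GI50 = concentration required for 50% inhibition of growth.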 Active and inactive are the calls of the source. Rule as the data show it: active = GI50 up to about 1.1 µM and inactive = higher.

As to `CC1=Nc2ccccc2C1C(Cc1ccccc1N)c1c(C)[nH]c2ccccc12` (stereo not drawn), the GI50 in the assay on SK-MEL-5 was 14.6 µM (inactive); in the assay on HOP-62, 14.4 µM (inactive); in the assay with LOX IMVI, 15 µM (inactive); with SK-MEL-28 it was 18.8 µM (inactive); in the assay with SK-OV-3, 24.6 µM (inactive); with SK-MEL-2 it was 5.92 µM (inactive). The GI50 is 8.17 µM (inactive) with SF-268; 17.3 µM (inactive) in the assay on Malme-3M; 20.2 µM (inactive) in the assay on RXF 393; 19.5 µM (inactive) in the assay with K562; 12.3 µM (inactive) in the assay on HOP-92; 17.6 µM (inactive) with SF-539. In addition, the GI50 is 21.9 µM (inactive) with SR; 16.9 µM (inactive) with TK-10; 17.2 µM (inactive) in the assay on NCI-H460; 17.4 µM (inactive) in the assay with IGROV-1; 15.5 µM (inactive) in the assay with SW-620; 15 µM (inactive) with NCI-H226. The GI50 in the assay on HCT-116 was 16.9 µM (inactive).

For the compound `COc1cccc2c1OC1(C=C2)Oc2ccccc2C(=O)N1C` (stereo not drawn), the GI50 with SK-MEL-5 was 68.1 µM (inactive); in the assay on HOP-62, 51.5 µM (inactive); with OVCAR-4, 45.3 µM (inactive); in the assay with LOX IMVI, 2.05 µM (inactive); with SK-MEL-28, 59 µM (inactive); in the assay with SK-OV-3, 25.9 µM (inactive). Also, the GI50 with SK-MEL-2 is 54.5 µM (inactive); in the assay on SF-268, 34.3 µM (inactive); in the assay on RXF 393, 25.5 µM (inactive); with K562, 17.5 µM (inactive); in the assay on HOP-92 it was 35.2 µM (inactive); with SR it was 3.55 µM (inactive). Further, the GI50 in the assay on TK-10 is 24.9 µM (inactive); in the assay with NCI-H460, 32.4 µM (inactive); in the assay on IGROV-1, 27.7 µM (inactive); in the assay with SW-620, 42.7 µM (inactive); in the assay on NCI-H226, 20.9 µM (inactive); in the assay with HCT-116, 37.6 µM (inactive).

As to `O=C(O)c1nc2cc(C(F)(F)F)ccc2nc1Nc1ccc(F)cc1`, the GI50 is 16.2 µM (inactive) in the assay with SK-MEL-5; 18.7 µM (inactive) in the assay on LOX IMVI; 25.6 µM (inactive) in the assay on SK-MEL-28; 30.7 µM (inactive) in the assay on SK-OV-3; 7.16 µM (inactive) in the assay on SK-MEL-2; 22.3 µM (inactive) with SF-268. Also, the GI50 was 12.4 µM (inactive) in the assay with Malme-3M; 16.3 µM (inactive) in the assay with RXF 393; 13.5 µM (inactive) in the assay with K562; 13.5 µM (inactive) in the assay with HOP-92; 17.5 µM (inactive) in the assay with SF-539; 17.1 µM (inactive) with SR. The GI50 was 20 µM (inactive) with TK-10; 18.7 µM (inactive) in the assay with IGROV-1; 17.3 µM (inactive) in the assay on SW-620; 27 µM (inactive) in the assay with NCI-H226; 15.4 µM (inactive) in the assay on HCT-116.

For `Clc1ccc2nc(-c3ccccc3)nc(Cl)c2c1`, the GI50 is > 100 µM (inactive) in the assay on SK-MEL-5; 23.9 µM (inactive) in the assay with HOP-62; 80.5 µM (inactive) with SK-MEL-28; 12.3 µM (inactive) in the assay with SK-OV-3; 45.6 µM (inactive) in the assay with SK-MEL-2; 52.8 µM (inactive) with SF-268. The GI50 in the assay with Malme-3M was 24.2 µM (inactive); in the assay on RXF 393, 26.1 µM (inactive); with K562 it was > 100 µM (inactive); in the assay on HOP-92, 25.4 µM (inactive); in the assay with SF-539, 46.6 µM (inactive); in the assay on SR, > 100 µM (inactive). For the same compound, the GI50 was 21.7 µM (inactive) with TK-10; 87.9 µM (inactive) in the assay with NCI-H460; > 100 µM (inactive) with IGROV-1; > 100 µM (inactive) with SW-620; 34 µM (inactive) with NCI-H226; 73.6 µM (inactive) with HCT-116.

As for `CC1=CC(=O)CC(C)(C)C1/C=C/C(C)=C/C=C/C(C)=C/C=C/C=C(C)/C=C/C=C(C)/C=C/C1=C(C)CC(O)CC1(C)C` (stereo not drawn), the GI50 in the assay on SK-MEL-5 was 33 µM (inactive); with HOP-62 it was 47 µM (inactive); in the assay on OVCAR-4, 37.9 µM (inactive); with LOX IMVI it was 31.3 µM (inactive); in the assay with SK-MEL-28 it was 28.4 µM (inactive); in the assay with SK-OV-3, > 100 µM (inactive). Also, the GI50 is > 100 µM (inactive) with SK-MEL-2; 50.9 µM (inactive) in the assay on SF-268; 20.1 µM (inactive) with RXF 393; 0.745 µM (active) with K562; 27.3 µM (inactive) with HOP-92; 47.2 µM (inactive) in the assay with SF-539. Also, the GI50 is 0.0422 µM (active) with SR; 50.2 µM (inactive) in the assay on TK-10; 38.3 µM (inactive) with NCI-H460; 39.1 µM (inactive) in the assay on IGROV-1; 15.7 µM (inactive) with SW-620; > 100 µM (inactive) in the assay on NCI-H226. For the same compound, in the assay with HCT-116, the GI50 is 18.4 µM (inactive).

For `C=CCOC(=O)NC1C(OC(C)[C@@H](NC(=O)OCc2ccccc2)C(=O)OC(C)(C)C)OC(COC(C)=O)C(OC(C)=O)C1OC(C)=O` (stereo partly drawn), the GI50 was > 100 µM (inactive) with SK-MEL-5; > 100 µM (inactive) with HOP-62; > 100 µM (inactive) in the assay on OVCAR-4; 86.7 µM (inactive) in the assay with LOX IMVI; > 100 µM (inactive) in the assay on SK-MEL-28; > 100 µM (inactive) with SK-OV-3. Further, the GI50 is > 100 µM (inactive) in the assay with SF-268; > 100 µM (inactive) in the assay on Malme-3M; > 100 µM (inactive) in the assay with RXF 393; 72.9 µM (inactive) in the assay on K562; > 100 µM (inactive) in the assay on HOP-92; > 100 µM (inactive) in the assay with SF-539. The GI50 in the assay with SR is 79.8 µM (inactive); with TK-10 it was > 100 µM (inactive); in the assay on NCI-H460, > 100 µM (inactive); in the assay on IGROV-1, > 100 µM (inactive); with SW-620, > 100 µM (inactive); in the assay with NCI-H226, > 100 µM (inactive). Moreover, the GI50 in the assay with HCT-116 is > 100 µM (inactive).

For the compound `CCCc1nc2c(n1CC)C(=O)c1ccccc1C2=O`, the GI50 in the assay on SK-MEL-5 is 29.8 µM (inactive); in the assay on HOP-62, > 100 µM (inactive); in the assay on OVCAR-4, 32.1 µM (inactive); in the assay on SK-MEL-28, 82.2 µM (inactive); in the assay with SK-OV-3, 21.7 µM (inactive); with SF-268, 45.5 µM (inactive). The GI50 in the assay on Malme-3M was 22.2 µM (inactive); with RXF 393, 26.9 µM (inactive); with K562, 31.1 µM (inactive); in the assay with HOP-92 it was > 10 µM (inactive); in the assay on SF-539, 63.5 µM (inactive); in the assay with SR it was 42.3 µM (inactive). The GI50 is 66.1 µM (inactive) in the assay on TK-10; 37.2 µM (inactive) in the assay on NCI-H460; 27 µM (inactive) with IGROV-1; 39.1 µM (inactive) with SW-620; 56 µM (inactive) in the assay with NCI-H226; 39.3 µM (inactive) in the assay with HCT-116.

With `O=C(Nn1c(-c2ccccc2)nc2ccccc2c1=O)c1ccc(Cl)cc1`, the GI50 is 23.4 µM (inactive) with SK-MEL-5; > 100 µM (inactive) in the assay with HOP-62; 56.5 µM (inactive) in the assay with OVCAR-4; > 100 µM (inactive) with LOX IMVI; > 100 µM (inactive) in the assay with SK-MEL-28; > 100 µM (inactive) with SK-OV-3. The GI50 is > 100 µM (inactive) in the assay with SF-268; > 100 µM (inactive) in the assay with Malme-3M; > 100 µM (inactive) with RXF 393; > 100 µM (inactive) in the assay on K562; 75.3 µM (inactive) with HOP-92; > 100 µM (inactive) with SF-539. Further, the GI50 in the assay with SR is 85.5 µM (inactive); in the assay with TK-10, 86.3 µM (inactive); in the assay on NCI-H460, 59.6 µM (inactive); with IGROV-1, > 100 µM (inactive); in the assay on SW-620, > 100 µM (inactive); in the assay on NCI-H226, > 100 µM (inactive). In the assay with HCT-116, the GI50 was > 100 µM (inactive).

Turning to `COc1ccc2c(=O)cc(-c3ccc(OC)c(OC)c3OC)oc2c1`, the GI50 in the assay with SK-MEL-5 was 49 µM (inactive); in the assay with HOP-62, > 85.3 µM (inactive); with OVCAR-4, > 93.3 µM (inactive); in the assay with LOX IMVI, > 75.7 µM (inactive); in the assay with SK-MEL-28, > 100 µM (inactive); with SK-OV-3 it was > 89.1 µM (inactive). The GI50 in the assay with SF-268 was > 60.1 µM (inactive); with Malme-3M, 40.4 µM (inactive); in the assay on RXF 393, > 80.9 µM (inactive); with K562 it was 37.1 µM (inactive); in the assay with HOP-92, 33.1 µM (inactive); with SF-539, > 57.3 µM (inactive). For the same compound, the GI50 in the assay with SR is 74.8 µM (inactive); in the assay with TK-10, > 100 µM (inactive); with NCI-H460, 99.3 µM (inactive); with IGROV-1 it was > 83.4 µM (inactive); in the assay with SW-620, > 100 µM (inactive); in the assay on NCI-H226, > 65.9 µM (inactive). In addition, in the assay with HCT-116, the GI50 was > 100 µM (inactive).

With `O=C(O)CN1CCN(CC(=O)O)CCN(CC(=O)O)CCN(CC(=O)O)CC1` [TETRAXETAN], the GI50 in the assay with SK-MEL-5, in the assay with HOP-62, with OVCAR-4, with LOX IMVI, with SK-MEL-2 and with SF-268 was > 100 µM (inactive) in each case. Also, the GI50 with RXF 393, in the assay with K562, in the assay with HOP-92, with SF-539, in the assay on SR and in the assay on TK-10 was > 100 µM (inactive) in each case. The GI50 with NCI-H460, with IGROV-1, in the assay with SW-620, in the assay on NCI-H226 and in the assay on HCT-116 was > 100 µM (inactive) throughout.
